Consider 2 substances from publication PMC8909107, “Imaging Kv1.3 Expressing Memory T Cells as a Marker of Immunotherapy Response” (Cancers, 2022).

One may read the IC50 as the concentration at which inhibition is half-maximal. The term tissue uptake denotes the percentage of the injected dose found per gram of tissue.

Bridges are numbered along the chain shown (N, C = ends). Where no end group is shown, it is not given here. The star is where a group is joined. NOTA = O=C(O)CN1CCN(CC(=O)O)CCN(CC(=O)*)CC1

Data set [1] concerns the target T1, KV1.3 channels (L929 fibroblasts stably expressing KV1.3) (Mus musculus, UniProt P16390).
T1 construct: expressed in transfected cells
Description: Patch-clamp (QPatch HTX), run-down of Kv1.3 currents after overnight exposure. It is filed as cell-based. The note with it: L929-KV1.3 cells, overnight exposure 0.1, 1 or 10 μM; current density (pA/pF) at pulses 18-20 normalized to control; n = 13; read-out: IC50 (50% suppression) from normalized current density. On the procedure: The effects of the peptides NOTA-KCNA3P and EgK5 on KV1.2, KV1.3 and KV1.5 [19] channels were evaluated by patch-clamp as detailed in the Supplementary Materials (Supplementary Figure S3) using a QPatch HTX automated electrophysiology platform.
We used patch-clamp analysis to determine if NOTA-KCNA3P modulates Kv1.3 channels such as EgK5. We exposed L929 fibroblasts stably expressing KV1.3 channels overnight to NOTA-KCNA3P (0.1, 1 or 10 μM) or EgK5 (10 μM) dissolved in P6N buffer, or to media containing an equal volume of P6N buffer. […] Concentration–response curves generated with either normalized current amplitude or normalized current density yielded IC50 (50% suppression) values of […] and 50 nM, respectively, for NOTA-KCNA3P (Supplementary Figure S3D,E). […]
[18F]AlF-NOTA-KCNA3P was between 8.2 - 8.3 min. […] The radiochemical purity of [18F]AlF-NOTA-KCNA3P was assessed by analytical radio-HPLC (Aeris™ 5µm PEPTIDE XB-C18, 100 Å, 250 x 4.6 mm; 1 ml / min, λ = 220 nm). […]
NOTA-KCNA3P and EgK5 were prepared as 1-10 mM stock solutions in P6N buffer (10 mM sodium phosphate, 0.8% w/v, NaCl, and 0.05% v/v Tween 20, pH 6), diluted with 0.1% (w/v) BSA in external buffer. The effects of peptides on KV1.2, KV1.3 and KV1.5[1] channels were evaluated by patch-clamp using a QPatch HTX automated electrophysiol-ogy platform (Sophion, Denmark) (Supplementary Figure S3). […]

The format of data set [2] is in vivo, BalbC mice bearing CT26 tumours. The protocol: (§1) Mice were imaged under isoflurane anaesthesia and injected with [^18F]AlF-NOTA-KCNA3P (~10 MBq) via the lateral tail vein. Dynamic time–activity curves were acquired to assess tracer uptake and clearance profiles (Supplementary Figure S4) and tail vein blood samples taken to assess in vivo metabolic stability (Supplementary Figure S7). To stratify response to therapy, animals were imaged on day 12 using a Siemens Inveon PET-CT as previously described. Briefly, 20 min static PET acquisitions were acquired from 60 min post-injection and analysis of the reconstructed calibrated images was performed and volumes of interest delineated by CT imaging were used to determine tissue uptake (whole body distribution shown for reference in Supplementary Figure S8). Data are expressed as % of the injected dose per gram (%ID/g) of tumour tissue in the volume of interest.
Tumour uptake of [^18F]AlF-NOTA-KCNA3P was heterogeneous depending on treatment regime and treatment efficacy (Figure 3A) with a tumour-to-blood ratio (TBR) of ~2 in tumour responders and a TBR of ~1 in tumour non-responders (TNRs). Low tumour uptake of [^18F]AlF-NOTA-KCNA3P was measured in the TNRs and the control treatment arm. […] Tumour uptake of [^18F]AlF-NOTA-KCNA3P was sufficient to distinguish from background and differentiated responsive tumours from treated non-responders (Table 1 and Figure 3B,C) in vivo. Ex vivo biodistribution was used to confirm the imaging results (Supplementary Figure S5). Importantly, no difference was seen between non-responders and responders in the biodistribution of [^18F]AlF-NOTA-KCNA3P in muscle, blood, lung, skin, heart and brain, the only difference being in the tumour (Supplementary Figure S5). […]
1.7 In vivo biodistribution of [18F]AlF-NOTA-KCNA3P
The biodistribution of [18F]AlF-NOTA-KCNA3P was assessed in BalbC mice bearing CT26 tumours treated with combined PD-1 and CTLA4 therapy. The animals were im-aged dynamically for 120 minutes and the distribution and excretion characteristics as- […]
the kidneys and hepatobiliary routes (Supplementary Figure S4). Blood clearance is […]
Supplementary Figure S5. Ex vivo biodistribution analysis of [18F]AlF-NOTA-KCNA3P retention in selected organs. ICI treated responder (TR, black) and treated non responder (TNR, white) animals were sacrificed 80min post-injection, tissues excised, weighed and radioactivity quantified using a Wallac gamma counter. Bars represent the mean of 5 animals ± SEM, * P<0.05.
1.9 Western blot analysis of Kv1.3 […]
The following anti- […]
bodies were used: anti-Kv1.3 KCNA3 (APC-101, Alomone) and anti-GAPDH (SC-47724, […]
Supplementary Figure S6. […]

Details of data set [3]: species or system mice. Conditions: in vivo, ~20MBq i.v., blood samples at 0, 30, 60 and 120 min p.i., radioHPLC, over 120 minutes. From the text:
Mice were imaged under isoflurane anaesthesia and injected with [^18F]AlF-NOTA-KCNA3P (~10 MBq) via the lateral tail vein. Dynamic time–activity curves were acquired to assess tracer uptake and clearance profiles (Supplementary Figure S4) and tail vein blood samples taken to assess in vivo metabolic stability (Supplementary Figure S7). To stratify response to therapy, animals were imaged on day 12 using a Siemens Inveon PET-CT as previously described. […] Data are expressed as % of the injected dose per gram (%ID/g) of tumour tissue in the volume of interest.
Supplementary Figure S5. […] ICI treated responder (TR, black) and treated non responder (TNR, white) animals were sacrificed 80min post-injection, tissues excised, weighed and radioactivity quantified using a Wallac gamma counter. […]
Tumour Kv1.3 expression on infiltrating lymphocytes (TILs) were quantified using standard western blotting procedures as previously described. […]
An equal amount of 10% sulfosalicylic acid was added to the supernatant plasma samples and vortexed to precipitate out remaining proteins. The samples were centrifuged at 2,500 x g for 5 min at 4 °C, and the supernatant analyzed via radioHPLC. […]

The nature of data set [4]: PET-CT tumour retention of the tracer after ICI treatment. It is filed as in vivo, BALB/c mice. Conditions: BALB/c, mouse, CT26 tumour, iv, 10 MBq, total radioactivity, PET-CT day 12, 20 min static from 60 min post-injection, ~10 MBq i.v., mean ± SD.
From the text: All animal procedures strictly followed IACUC guidelines (IACUC No. 181399) and conformed to NIH guidelines and public law. Development of the animal model has been described previously. Briefly, BALB/c mice aged 6–8 weeks were purchased from In Vivos (Singapore) and implanted subcutaneously into the right shoulder with the murine colon cancer cell line CT26 (ATCC, 2 × 10^5 cells per animal 1:1 (v:v) ratio in Matrigel). Tumour volumes were repeatedly measured on days 6, 9, 12, 15, 19 and 21 post tumour implantation. The mice were randomised and dosed by intraperitoneal (i.p.) injection on days 6, 9 and 12 following tumour inoculation. Treatment groups included control (5 mg/kg, rat IgG2a isotype control, α-trinitrophenol mAb, IP), αPD1 mAb monotherapy (10 mg/kg, rat IgG2a anti-mouse PD-1, RMP1-14) and combined αPD1 and αCTLA4 mAb therapy (10 mg/kg and 5 mg/kg, respectively, mouse IgG2b anti-mouse CTLA-4, 9D9, Bio-X Cell).
as §1
Tumour uptake of [^18F]AlF-NOTA-KCNA3P was heterogeneous depending on treatment regime and treatment efficacy (Figure 3A) with a tumour-to-blood ratio (TBR) of ~2 in tumour responders and a TBR of ~1 in tumour non-responders (TNRs). Low tumour uptake of [^18F]AlF-NOTA-KCNA3P was measured in the TNRs and the control treatment arm. […] Tumour uptake of [^18F]AlF-NOTA-KCNA3P was sufficient to distinguish from background and differentiated responsive tumours from treated non-responders (Table 1 and Figure 3B,C) in vivo. Ex vivo biodistribution was used to confirm the imaging results (Supplementary Figure S5). Importantly, no difference was seen between non-responders and responders in the biodistribution of [^18F]AlF-NOTA-KCNA3P in muscle, blood, lung, skin, heart and brain, the only difference being in the tumour (Supplementary Figure S5).

T1 sequence (P16390 whole entry): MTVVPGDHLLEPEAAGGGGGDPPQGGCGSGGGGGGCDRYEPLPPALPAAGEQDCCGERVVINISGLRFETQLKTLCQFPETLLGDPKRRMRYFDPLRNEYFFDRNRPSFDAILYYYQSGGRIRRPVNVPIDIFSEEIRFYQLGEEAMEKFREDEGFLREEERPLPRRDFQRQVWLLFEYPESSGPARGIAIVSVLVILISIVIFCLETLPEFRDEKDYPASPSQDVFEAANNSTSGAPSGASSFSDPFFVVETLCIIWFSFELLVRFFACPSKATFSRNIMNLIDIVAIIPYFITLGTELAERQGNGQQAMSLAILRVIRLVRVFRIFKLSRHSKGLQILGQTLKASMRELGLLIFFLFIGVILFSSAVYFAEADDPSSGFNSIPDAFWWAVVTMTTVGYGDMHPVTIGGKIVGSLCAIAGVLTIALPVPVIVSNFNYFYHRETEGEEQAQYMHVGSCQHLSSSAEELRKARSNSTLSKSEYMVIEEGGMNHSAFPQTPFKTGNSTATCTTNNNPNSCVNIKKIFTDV

Take “{NOTA}-RTCESASHKFEGPCLRDSNCANVCKTEGFHGGKCKGLRRRCFCTKHC (disulfide 3-47, 14-34, 20-41, 24-43) [NOTA-KCNA3P]”: the IC50 in data set [1] is 50 nM.
As to “{NOTA}-RTCESASHKFEGPCLRDSNCANVCKTEGFHGGKCKGLRRRCFCTKHC (disulfide 3-47, 14-34, 20-41, 24-43) [[^18F]AlF-NOTA-KCNA3P]”, in data set [2] (dynamic PET 120 minutes), the Blood clearance result was “rapid”. For the same substance, in data set [2] (dynamic PET 120 minutes), the muscle uptake result is listed as “relatively low”. Besides, in data set [2] (dynamic PET 120 minutes, CT26 tumour mice treated with combined PD-1 and CTLA4 therapy), the excretion profile result was “excretion via the kidneys and hepatobiliary routes”. Moreover, the “difference between non-responders and responders in biodistribution in muscle, blood, lung, skin, heart and brain” value in data set [2] (ex vivo biodistribution, 80min post-injection, gamma counter, 5 animals) is listed as “no difference”. Besides, the “metabolism of parent tracer in plasma” value in data set [3] was “less than 30%”. The tissue uptake in data set [4] (Control group (isotype IgG), n = 10 mice/group) was found to be 0.51 ± 0.19 %ID/g; in data set [4] (Treatment non-responders (TNR)), 0.53 ± 0.2 %ID/g; in data set [4] (Treatment responsive tumours (TR), αPD1 + αCTLA4), 1.3 ± 0.36 %ID/g; in data set [4] (Treatment responsive tumours (TR), αPD1) it was 0.87 ± 0.15 %ID/g.
